Columns and labels:
TNBC LM2-4-luc cells = experiment: TNBC LM2-4 mouse model of spontaneous metastasis; type: in vivo, SCID mice; settings: nal-IRI 10 mg/kg salt, nonliposomal irinotecan 50 mg/kg salt, IV every 7 days
From the text: 42 female SCID mice were inoculated with TNBC LM2-4-luc cells in their lower right inguinal mammary fat pad. […] Post primary tumor resection, bioluminescence imaging (BLI), (BLI, Xenogen, Perkin Elmer) was used to monitor metastasis formulation. […] Animals were monitored 2-3 times per week using BLI and at the study endpoint using a 1T MRI (M3, Aspect Imaging).

[1] = 5-day regimen; cited from earlier work

| SMILES | Metastatic burden, median bioluminescence flux (TNBC LM2-4-luc cells; day 12) | Median survival (TNBC LM2-4-luc cells) | Maximum tolerated dose [1] |
| --- | --- | --- | --- |
| CCc1c2c(nc3ccc(OC(=O)N4CCC(N5CCCCC5)CC4)cc13)-c1cc3c(c(=O)n1C2)COC(=O)[C@]3(O)CC [irinotecan] | 2.1×10^9 | 14 days |  |
| C[C@@H](O)[C@@H]1NC(=O)[C@H](CCCCN)NC(=O)[C@@H](Cc2c[nH]c3ccccc23)NC(=O)[C@H](Cc2ccccc2)NC(=O)[C@@H](NC(=O)[C@H](N)Cc2ccccc2)CSSC[C@@H](C(=O)N[C@H](CO)[C@@H](C)O)NC1=O [octreotide] |  |  | 2000 micrograms three times daily |

Source: US20170151226A1, “Treatment of Breast Cancer with Liposomal Irinotecan” (priority 2014, published 2017)
